Measurements as given in US11672817B2, “Maltosyl-Isomaltooligosaccharides” (ISOThrive Inc., priority 2016, dated 2023).
No end group written: not given here.

Tests used:
[1] = tested on: Weissella viridescens NRRL B-1951; experiment: W. viridescens culture absorbance (growth) with nisin; type: cell-based; set-up: key to Corrected ABS 610rs: A600 minus background absorbance taken just after inoculation; conditions: for 91516 ABS 610f: final absorbance, uncorrected
Method: Purified nisin A and Z are commercially available and were acquired from Handary S. A. (Brussels Belgium). Certificates of analysis for each lot indicated purities of 95.2 and 99.6% for nisin A and Z, respectively.
100 g De-Man, Rogosa and Sharpe (MRS) media was prepared in a 500 mL Erlenmeyer to contain 5.5% solids in deionized water (18.2 MS2, Hydro Service and Supplies, Gaithersburg, Md.). The media was autoclaved (121° C. 15 min), cooled, and inoculated with 1 mL (0.5 mL culture+0.5 mL glycerol, 40%; frozen at −78° C.) of Weissella viridescens NRRL B-1951 (test strain). The culture was incubated at 31° C. overnight (15 Hr).
The next day, stock solutions of either nisin A or Z were prepared in deionized water to contain 31.3 and 33.7 μg/g of each peptide.
(§1) 100 g MRS media was prepared to contain 5.5% solids. Two sets (one set each for nisin A and nisin Z) of eight Hach-type tubes (Kimble Chase 45066-16100) were prepared. Within each set, in order was added 5.00, 4.95, 4.90, 4.75, 4.50, 4.00, 3.50 and 3.00 g MRS media. The tubes were sealed and autoclaved.
(§2) To each tube was added, of the appropriate nisin stock, 0.00, 0.05, 0.10, 0.25, 0.50, 1.00, 1.50, and 2.00 g. Each tube was inoculated with 0.25 g of late-log W. viridescens NRRL B-1951 culture. The tubes were sealed and the absorbance at 600 nm was quickly measured (Hach DR900). The tubes were segregated by set and incubated at 31° C. overnight (15 Hr).
Each tube was thoroughly mixed to suspend settled cells and the absorbance was measured again at 600 nm. The final absorbance values for each sample were corrected for their respective background (taken just after inoculation, scattered light from added cells). The corrected absorption values were a measure of W. viridescens growth. The corrected values were plotted against nisin concentration and minimum inhibiting concentration approximated via regression.

[2] = tested on: Weissella viridescens NRRL B-1951; experiment: HPLC of culture supernatants: consumption of glucose and production of organic acids with nisin; type: cell-based; conditions: for acetic acid in the fermentation media: MRS media originally contained 7% acetate
Method: as §1, §2
Each tube was sampled (1.5 mL conical polypropylene centrifuge tubes) and centrifuged at 10 kRPM for 10 minutes to remove and suspended cells. The resulting supernatants were filtered (0.2 μm nylon), diluted to 0.5% solids, and analyzed by high pressure liquid chromatography (HPLC, Agilent 1100, refractive index detector and BioRad Ainex HPX-87H column) for consumption of glucose and production of organic acids. The following table illustrates the concentration of sugars such as glucose and production of organic acids during the incubation.
Note that the MRS media originally contained 7% acetate; therefore 7% should be subtracted from the values for acetate in the above table to ascertain the amount of acetate generated during the assay.

Which “inhibition of bacterial growth” value [1] does the source give for “nisin Z (ITSISLCTPGCKTGALMGCNMKTATCNCSIHVSK; not fully specified (residues 2, 5, 33, bridges); also: lantibiotic (thioether rings, dehydrated residues not placed); UniProt P13068 24-57, looked up, variant H27N) [Purified nisin Z, commercially available, acquired from Handary S. A; purity 99.6%; bacteriocin peptide]” here?
The value was “can effectively inhibit”.

What about the “91516 ABS 610f” value ([1]; nisin Z 0.34 μg/g (tube Z2)) of the same substance?
The value was 1.618.

What about the “91516 ABS 610f” value ([1]; nisin Z 0.77 μg/g (tube Z3)) of the same substance?
Its value is 1.526.

What about the “91516 ABS 610f” value ([1]; nisin Z 1.58 μg/g (tube Z4)) of the same substance?
The value was 1.296.

And the “91516 ABS 610f” value ([1]; nisin Z 3.19 μg/g (tube Z5))?
The value was 0.801.

And the “91516 ABS 610f” value ([1]; nisin Z 6.31 μg/g (tube Z6))?
Its value is 0.426.

And the “91516 ABS 610f” value ([1]; nisin Z 9.54 μg/g (tube Z7))?
The value was 0.384.

And the “91516 ABS 610f” value ([1]; nisin Z 12.61 μg/g (tube Z8))?
The value was 0.386.

What about the “Corrected ABS 610rs” value ([1]; nisin Z 0.34 μg/g (tube Z2)) of the same substance?
Its value is 1.146.

And the “Corrected ABS 610rs” value ([1]; nisin Z 0.77 μg/g (tube Z3))?
The value was 1.062.

And the “Corrected ABS 610rs” value ([1]; nisin Z 1.58 μg/g (tube Z4))?
The value was 0.841.

And the “Corrected ABS 610rs” value ([1]; nisin Z 3.19 μg/g (tube Z5))?
The value was 0.359.

What about the “Corrected ABS 610rs” value ([1]; nisin Z 6.31 μg/g (tube Z6)) of the same substance?
Its value is 0.003.

What about the “Corrected ABS 610rs” value ([1]; nisin Z 9.54 μg/g (tube Z7)) of the same substance?
Its value is 0.001.

What about the “Corrected ABS 610rs” value ([1]; nisin Z 12.61 μg/g (tube Z8)) of the same substance?
Its value is 0.001.

And the “Maltotriose in the fermentation media” value ([2]; nisin Z 0.34 μg/g (tube Z2))?
The value was 0.282 %/brix.

And the “ethanol in the fermentation media” value ([2]; nisin Z 0.34 μg/g (tube Z2))?
Its value is 0.057 %/brix.

What about the “formic acid in the fermentation media” value ([2]; nisin Z 0.34 μg/g (tube Z2)) of the same substance?
The value was 0.303 %/brix.

What about the “fructose in the fermentation media” value ([2]; nisin Z 0.34 μg/g (tube Z2)) of the same substance?
The value was 0.000 %/brix.

What about the “glucose in the fermentation media” value ([2]; nisin Z 0.34 μg/g (tube Z2)) of the same substance?
Its value is 22.988 %/brix.

And the “glycerol in the fermentation media” value ([2]; nisin Z 0.34 μg/g (tube Z2))?
Its value is 0.343 %/brix.

And the “lactic acid in the fermentation media” value ([2]; nisin Z 0.34 μg/g (tube Z2))?
Its value is 6.742 %/brix.

And the “maltose in the fermentation media” value ([2]; nisin Z 0.34 μg/g (tube Z2))?
Its value is 0.722 %/brix.

And the “acetic acid in the fermentation media” value ([2]; nisin Z 0.34 μg/g (tube Z2))?
Its value is 8.273 %/brix.

What about the “Maltotriose in the fermentation media” value ([2]; nisin Z 1.58 μg/g (tube Z4)) of the same substance?
Its value is 0.265 %/brix.

And the “ethanol in the fermentation media” value ([2]; nisin Z 1.58 μg/g (tube Z4))?
The value was 0.083 %/brix.

And the “formic acid in the fermentation media” value ([2]; nisin Z 1.58 μg/g (tube Z4))?
Its value is 0.309 %/brix.

What about the “fructose in the fermentation media” value ([2]; nisin Z 1.58 μg/g (tube Z4)) of the same substance?
Its value is 0.000 %/brix.

And the “glucose in the fermentation media” value ([2]; nisin Z 1.58 μg/g (tube Z4))?
The value was 24.153 %/brix.

What about the “glycerol in the fermentation media” value ([2]; nisin Z 1.58 μg/g (tube Z4)) of the same substance?
Its value is 0.337 %/brix.

And the “lactic acid in the fermentation media” value ([2]; nisin Z 1.58 μg/g (tube Z4))?
The value was 5.081 %/brix.

And the “maltose in the fermentation media” value ([2]; nisin Z 1.58 μg/g (tube Z4))?
Its value is 1.007 %/brix.

What about the “acetic acid in the fermentation media” value ([2]; nisin Z 1.58 μg/g (tube Z4)) of the same substance?
The value was 8.247 %/brix.

What about the “Maltotriose in the fermentation media” value ([2]; nisin Z 3.19 μg/g (tube Z5)) of the same substance?
The value was 0.311 %/brix.

What about the “ethanol in the fermentation media” value ([2]; nisin Z 3.19 μg/g (tube Z5)) of the same substance?
Its value is 0.067 %/brix.

What about the “formic acid in the fermentation media” value ([2]; nisin Z 3.19 μg/g (tube Z5)) of the same substance?
The value was 0.281 %/brix.

What about the “fructose in the fermentation media” value ([2]; nisin Z 3.19 μg/g (tube Z5)) of the same substance?
The value was 0.000 %/brix.

And the “glucose in the fermentation media” value ([2]; nisin Z 3.19 μg/g (tube Z5))?
The value was 24.698 %/brix.

And the “glycerol in the fermentation media” value ([2]; nisin Z 3.19 μg/g (tube Z5))?
The value was 0.321 %/brix.

And the “lactic acid in the fermentation media” value ([2]; nisin Z 3.19 μg/g (tube Z5))?
Its value is 2.995 %/brix.

What about the “maltose in the fermentation media” value ([2]; nisin Z 3.19 μg/g (tube Z5)) of the same substance?
The value was 0.750 %/brix.

What about the “acetic acid in the fermentation media” value ([2]; nisin Z 3.19 μg/g (tube Z5)) of the same substance?
Its value is 8.026 %/brix.

What about the “Maltotriose in the fermentation media” value ([2]; nisin Z 6.31 μg/g (tube Z6)) of the same substance?
The value was 0.247 %/brix.

What about the “ethanol in the fermentation media” value ([2]; nisin Z 6.31 μg/g (tube Z6)) of the same substance?
The value was 0.059 %/brix.

And the “formic acid in the fermentation media” value ([2]; nisin Z 6.31 μg/g (tube Z6))?
Its value is 0.267 %/brix.

What about the “fructose in the fermentation media” value ([2]; nisin Z 6.31 μg/g (tube Z6)) of the same substance?
The value was 0.000 %/brix.

And the “glucose in the fermentation media” value ([2]; nisin Z 6.31 μg/g (tube Z6))?
Its value is 25.353 %/brix.

And the “glycerol in the fermentation media” value ([2]; nisin Z 6.31 μg/g (tube Z6))?
Its value is 0.320 %/brix.

And the “lactic acid in the fermentation media” value ([2]; nisin Z 6.31 μg/g (tube Z6))?
Its value is 1.351 %/brix.

What about the “maltose in the fermentation media” value ([2]; nisin Z 6.31 μg/g (tube Z6)) of the same substance?
The value was 0.726 %/brix.

And the “acetic acid in the fermentation media” value ([2]; nisin Z 6.31 μg/g (tube Z6))?
The value was 7.969 %/brix.

And the “Maltotriose in the fermentation media” value ([2]; nisin Z 9.54 μg/g (tube Z7))?
The value was 0.291 %/brix.

And the “ethanol in the fermentation media” value ([2]; nisin Z 9.54 μg/g (tube Z7))?
The value was 0.065 %/brix.

What about the “formic acid in the fermentation media” value ([2]; nisin Z 9.54 μg/g (tube Z7)) of the same substance?
Its value is 0.263 %/brix.

What about the “fructose in the fermentation media” value ([2]; nisin Z 9.54 μg/g (tube Z7)) of the same substance?
Its value is 0.000 %/brix.

And the “glucose in the fermentation media” value ([2]; nisin Z 9.54 μg/g (tube Z7))?
Its value is 25.501 %/brix.

And the “glycerol in the fermentation media” value ([2]; nisin Z 9.54 μg/g (tube Z7))?
The value was 0.335 %/brix.

And the “lactic acid in the fermentation media” value ([2]; nisin Z 9.54 μg/g (tube Z7))?
Its value is 1.431 %/brix.

And the “maltose in the fermentation media” value ([2]; nisin Z 9.54 μg/g (tube Z7))?
The value was 0.895 %/brix.

What about the “acetic acid in the fermentation media” value ([2]; nisin Z 9.54 μg/g (tube Z7)) of the same substance?
The value was 8.026 %/brix.

What about the “Maltotriose in the fermentation media” value ([2]; nisin Z 12.61 μg/g (tube Z8)) of the same substance?
Its value is 0.318 %/brix.

What about the “ethanol in the fermentation media” value ([2]; nisin Z 12.61 μg/g (tube Z8)) of the same substance?
Its value is 0.148 %/brix.

And the “formic acid in the fermentation media” value ([2]; nisin Z 12.61 μg/g (tube Z8))?
The value was 0.299 %/brix.

And the “fructose in the fermentation media” value ([2]; nisin Z 12.61 μg/g (tube Z8))?
Its value is 0.000 %/brix.

And the “glucose in the fermentation media” value ([2]; nisin Z 12.61 μg/g (tube Z8))?
The value was 25.740 %/brix.

What about the “glycerol in the fermentation media” value ([2]; nisin Z 12.61 μg/g (tube Z8)) of the same substance?
Its value is 0.346 %/brix.

What about the “lactic acid in the fermentation media” value ([2]; nisin Z 12.61 μg/g (tube Z8)) of the same substance?
Its value is 1.652 %/brix.

What about the “maltose in the fermentation media” value ([2]; nisin Z 12.61 μg/g (tube Z8)) of the same substance?
The value was 0.876 %/brix.

What about the “acetic acid in the fermentation media” value ([2]; nisin Z 12.61 μg/g (tube Z8)) of the same substance?
Its value is 8.261 %/brix.
